Measurements from patent US7973063B2, “Methods for activating PPAR gamma-type receptors” (Galderma Research & Development, priority 2004, dated 2011).
Read-outs that look alike come from different tables or passages of the source.

Tests used:
[1] = target: T1, PPARα (Homo sapiens, UniProt Q07869); assay: Crossed-curve PPAR transactivation assay (PPARα); type: cell-based; conditions: HeLN cells stably transfected with Gal-hPPARα and luciferase reporter; crossed curves vs reference agonist, Schild regression; read-out: PPARα KdApp
T1 construct: Either is a handle for the test and no part of the key
T1 sequence (Q07869 200-468 limits assumed): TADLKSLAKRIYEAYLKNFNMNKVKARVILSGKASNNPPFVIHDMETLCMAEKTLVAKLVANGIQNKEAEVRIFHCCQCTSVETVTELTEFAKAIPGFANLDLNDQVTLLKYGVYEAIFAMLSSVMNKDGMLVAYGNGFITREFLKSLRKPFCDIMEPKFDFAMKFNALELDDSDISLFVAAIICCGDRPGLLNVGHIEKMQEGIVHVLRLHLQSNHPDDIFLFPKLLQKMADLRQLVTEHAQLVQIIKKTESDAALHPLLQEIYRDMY
Procedure: (§1) Activation of the PPAR receptors by an agonist (activator) in HeLN cells leads to the expression of a reporter gene, luciferase, which, in the presence of a substrate, generates light. The modulation of the PPAR receptors is measured by quantifying the luminescence produced after incubation of the cells in the presence of a reference agonist. The ligands will displace the agonist from its site. The measurement of the activity is performed by quantifying the light produced. This measurement makes it possible to determine the modulatory activity of the compounds according to the invention by the determination of the constant which is the affinity of the molecule for the PPAR receptor. Since this value can fluctuate depending on the basal activity and the expression of the receptor, it is referred to as apparent Kd (KdApp in nM).
(§2) To determine this constant, “crossed curves” for the test product, against a reference agonist, are prepared using a 96-well plate: 10 concentrations of the test product plus a concentration 0 are arranged in a line, and 7 concentrations of the agonist plus a concentration 0 are arranged in a column. This is 88 measurement points for 1 product and 1 receptor. The remaining 8 wells are used for repeatability controls.
(§3) Measurements are also taken for total agonist controls with the same products.
(§4) The HeLN cell lines used are stable transfectants containing the plasmids ERE-βGlob-Luc-SV-Neo (reporter gene) and PPAR (α, δ, γ) Gal-hPPAR. These cells are seeded in 96-well plates at the rate of 10 000 cells per well in 100 μl of DMEM medium without phenol red and supplemented with 10% of defatted calf serum. The plates are then incubated for 16 hours at 37° C. and 7% CO2.
(§5) The various dilutions of the test products and of the reference ligand are added at the rate of 5 μl per well. The plates are subsequently incubated for 18 hours at 37° C. and 7% CO2. The culture medium is removed by turning over and 100 μl of a 1:1 PBS/luciferin mixture are added to each well. After 5 minutes, the plates are read using the luminescence reader.

[2] = target: T2, PPARδ (Homo sapiens, UniProt Q03181); assay: Crossed-curve PPAR transactivation assay (PPARδ); type: cell-based; conditions: HeLN cells stably transfected with Gal-hPPARδ and luciferase reporter; crossed curves vs reference agonist, Schild regression; read-out: PPARδ KdApp
T2 construct: Either is a handle for the test and no part of the key
T2 sequence (Q03181 171-441 limits assumed): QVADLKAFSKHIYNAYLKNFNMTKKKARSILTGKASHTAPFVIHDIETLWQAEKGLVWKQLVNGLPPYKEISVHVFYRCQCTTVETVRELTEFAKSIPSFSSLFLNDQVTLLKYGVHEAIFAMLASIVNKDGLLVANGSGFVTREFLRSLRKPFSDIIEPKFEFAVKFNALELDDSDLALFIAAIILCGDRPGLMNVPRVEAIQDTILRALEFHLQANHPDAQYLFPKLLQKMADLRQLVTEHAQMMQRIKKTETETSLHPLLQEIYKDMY
Procedure: as §1, §2, §3, §4, §5

[3] = target: T3, PPARγ (Homo sapiens, UniProt P37231); assay: Crossed-curve PPAR transactivation assay (PPARγ); type: cell-based
T3 construct: PPARγ KdApp; other: HeLN cells stably transfected with Gal-hPPARγ and luciferase reporter; KdApp in nM (PPARγ receptors), compounds according to the present invention; Either is a handle for the test and no part of the key
T3 sequence (P37231 238-505 limits assumed): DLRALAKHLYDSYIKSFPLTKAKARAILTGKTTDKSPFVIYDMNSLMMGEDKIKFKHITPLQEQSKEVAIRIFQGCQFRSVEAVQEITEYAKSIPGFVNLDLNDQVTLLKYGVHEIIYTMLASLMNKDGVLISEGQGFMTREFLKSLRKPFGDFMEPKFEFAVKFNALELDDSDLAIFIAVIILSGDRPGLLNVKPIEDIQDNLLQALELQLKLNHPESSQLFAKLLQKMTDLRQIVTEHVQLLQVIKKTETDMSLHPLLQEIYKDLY
Procedure: as §1, §2, §3, §4, §5

[4] = target: PPARγ; conditions: Table 1, PPARγ receptors; values described for the compounds of FR-2,812,876; read-out: KdApp in nM (PPARγ receptors), compounds according to Patent FR 2 812 876; cited from earlier work
[5] = HeLN cells stably transfected with Gal-hPPARγ and luciferase reporter, crossed curves vs reference agonist, Schild regression, read-out: PPARγ KdApp

SMILES | Kd [1] [nM] | Kd [2] [nM] | Kd [3, 5] [nM] | Kd ([3]; Table 1, PPARγ receptors, read-out: KdApp in nM (PPARγ receptors), compounds according to the present invention) [nM] | Kd [4] [nM]
CCCCCCCNC(=O)N(C)c1cccc(-c2ccc(C[C@H](OCC)C(=O)O)cc2)c1 [Example 1, 2(S)-Ethoxy-3-[3′-(3-heptyl-1-methylureido)biphenyl-4-yl]propanoic acid] | 30 | 250 | < 1 | < 1 | 
CCCCCNC(=O)N(C)c1cccc(-c2ccc(C[C@H](OCC)C(=O)O)cc2)c1 [Example 2, 2(S)-Ethoxy-3-[3′-(1-methyl-3-pentylureido)biphenyl-4-yl]propanoic acid] | 250 | 2000 | 0.03 |  | 
CCCCCCCNC(=O)N(C)c1cccc(-c2ccc(C[C@H](OCCC)C(=O)O)cc2)c1 [Example 4, 2-(S)-Propyloxy-3-[3′-(3-heptyl-1-methylureido)biphenyl-4-yl]propanoic acid] | 30 | 500 | 0.025 |  | 
CCCCCCCNC(=O)N(C)c1cccc(-c2ccc(C[C@H](OCc3ccccc3)C(=O)O)cc2)c1 [Example 5, 2(S)-Benzyloxy-3-[3′-(3-heptyl-1-methylureido)biphenyl-4-yl]propanoic acid] | 250 |  | 0.03 |  | 
C=CCO[C@@H](Cc1ccc(-c2cccc(N(C)C(=O)NCCCCCCC)c2)cc1)C(=O)O [Example 6, 2(S)-Allyloxy-3-[3′-(3-heptyl-1-methylureido)biphenyl-4-yl]propanoic acid] | 2 | 50 | 0.003 |  | 
CCO[C@@H](Cc1ccc(-c2cccc(CN(C)C(=O)c3ccccc3)c2)cc1)C(=O)O [Example 13, (S)-2-Ethoxy-3-(3′-{[methyl(1-phenylmethanoyl)amino]methyl}biphenyl-4-yl)propionic acid] |  |  |  |  | 500
CN(Cc1cccc(-c2ccc(CC3SC(=O)NC3=O)cc2)c1)C(=O)C(C)(C)C (centres unmarked) [Example 22, N-[4′-(2,4-Dioxothiazolidin-5-ylmethyl)biphenyl-3-ylmethyl]-2,2,N-trimethylpropionamide] |  |  |  |  | 250
CCCCCCCCNC(=O)c1cccc(-c2ccc(CC3SC(=O)NC3=O)cc2)c1 (centres unmarked) [Example 23, N-Octyl-4′-(2,4-dioxothiazolidin-5-ylmethyl)biphenyl-3-carboxamide] |  |  |  |  | 2000
CCCCCCCCCC(=O)N(C)Cc1cccc(-c2ccc(CC3SC(=O)NC3=O)cc2)c1 (centres unmarked) [Example 32, N-[4′-(2,4-Dioxothiazolidin-5-ylmethyl)biphenyl-3-ylmethyl]-N-methyldecanamide] |  |  |  |  | 250
CCCCCCC(=O)N(C)Cc1cccc(-c2ccc(CC3SC(=O)NC3=O)cc2)c1 (centres unmarked) [Example 35, N-[4′-(2,4-Dioxothiazolidin-5-ylmethyl)biphenyl-3-ylmethyl]-N-methylheptanamide] |  |  |  |  | 1000
